Measurements taken from US20250367227A1, “FOLIC ACID-MODIFIED LIPOSOME-ENCAPSULATED TILIANIN NANOCRYSTAL (FA-Lipo@Til NC), PREPARATION METHOD AND USE THEREOF” (THE 1ST AFFILIATED HOSPITAL OF SHIHEZI UNIVERSITY, priority 2024, published 2025).

Assays:
atherosclerotic plaques = assay: In vivo pharmacodynamic evaluation in atherosclerosis model (ORO, H&E, Masson staining); design: species or system ApoE-/- mice; conditions: p.o., 4 mg/kg once a day, 12 weeks, Model group 51.53%
Description: AS model mice and initial treatment plan: ApoE^-/- mice were fed a high-fat diet for 12 weeks and then randomly divided into 5 groups: Model group (normal saline group); Crude Til group (p.o., 4 mg/kg); Til NCs group (p.o., 4 mg/kg); Lipo@Til NCs group (p.o., 4 mg/kg); FA-Lipo@Til NCs group in Example 3 (p.o., 4 mg/kg). The Control group was replaced by C57BL/6J mice fed with ordinary diet in the same cycle. The drug was administered orally once a day for 12 consecutive weeks, ApoE--mice continued to eat a high-fat diet throughout the treatment, and body weight changes were recorded 2 times a week. After 12 weeks of continuous administration, the mice were fasted but allowed to drink water 12 h before the experiment. Their eyeballs were removed to collect whole blood serum, and then the mice were dissected, their heart was exposed, and a small incision was made in the right atrium, and the whole body was perfused with pre-cooled saline until the outflowing fluid became clear. […]
ORO staining of the entire aorta: fat tissue stained bright red by ORO could interfere with the observation of plaques, such that the fat tissue around the blood vessels needed to be removed with fine forceps under a stereomicroscope. […] After photographing, the images were measured using ImageJ, and the percentage of plaques in the intima area was calculated to correct for differences in body size. […]

Caco-2 cell monolayer = Caco-2 cell monolayer transport; format: in vitro ADME; conditions: Til by HPLC on basolateral side, 50 μg to 100 μg Til
Description: The FA-Lipo@Til NCs obtained in Example 3 were tested using a Caco-2 cell culture monolayer model, Caco-2 cells were collected with a cell plating density of 1×10^5 […]. Cells were inoculated on the upper layer of the Transwell plate, 500 μL of diluted cell suspension was added to each well, and 600 μL of blank MEM medium was added to the lower layer, and the plates were placed in an incubator for culture; after 21 days of continuous culture, appropriate cell wells were selected, the upper and lower layers of the Transwell plate were replaced with HBSS balancing solution, and the plates were balanced in the incubator for 30 min. After removing the buffer, different concentrations of FA-Lipo@Til NCs (all diluted to 300 μL with HBSS containing 10% FBS) were added into the well, 100 μL of sample was taken from the lower layer of the Transwell plate at a specific time point, and an equal amount of HBSS buffer was supplemented, and the samples collected at different time points were used to detect the content of Til by HPLC. The cumulative release amount and Papp of the preparation were calculated. […] The transport amount of raw material Til through the monolayer was the lowest, while Til NCs were transported to the basolateral side over time, which was about 3 times that of the former at 4 h. […] FA ligands enhanced the internalization and transport of nanoparticles.

[1] = 37° C.; cited from earlier work
[2] = Dissolution behavior, dialysis diffusion method; format: physicochemical; conditions: 37° C., dialysis bag 3,500 D, 4 h
Description: The dissolution behavior of FA-Lipo@Til NCs in Example 3 was measured in different media (water, SGF, and SIF) at 37° C. using the dialysis diffusion method. 1 mL of Til raw material and Til NC preparation (containing 1 mg/mL of Til) were placed in a dialysis bag with a molecular weight cut-off of 3,500 D, which was then placed in 50 mL of dissolution medium and then placed in an oscillator with a frequency of 100 rpm at 37° C. Samples were taken at 1 min, 2 min, 3 min, 5 min, 10 min, 15 min, 30 min, 45 min, 60 min, 90 min, 120 min, 180 min, and 240 min, respectively. After taking the samples, the corresponding volume of medium was supplemented, and the samples were centrifuged (12,000 rpm, 10 min) and determined by HPLC. […] FA-Lipo@Til NCs were released more slowly than Til NCs. At 4 h, approximately 45% (in SGF) and 35% (in SIF) of Til in Lipo@Til NCs and FA-Lipo@Til NCs were released, while the cumulative release from Til NCs exceeded 55% (in SGF) and 65% (in SIF) within 4 h.

[3] = cited from earlier work

Question: With acacetin-7-glucoside [Til] as the substance, how does the “average plaque area of the aorta (ORO staining)” value (atherosclerotic plaques) read?
Answer: Its value is “reduced”.

Question: What about the “transport through the Caco-2 cell monolayer” value (Caco-2 cell monolayer) of the same substance?
Answer: The value was “lowest”.

Question: What about the “solubility in aqueous media” value [1] of the same substance?
Answer: The value was 1.57 µg/mL.

Question: What about the “cumulative release of Til in SGF” value ([2]; SGF) of the same substance?
Answer: Its value is “about 4%”.

Question: And the “cumulative release of Til in SIF” value ([2]; SIF)?
Answer: The value was “about 4%”.

Question: And the absolute oral bioavailability [3]?
Answer: The absolute oral bioavailability was 1.350±0.710%.
